Results as given in PubChem BioAssay (NCI).
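Cultured in 96-well plates, cells were exposed to test compound for 48 hours across five concentrations. TGI denotes the concentration required for complete inhibition of growth.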

Assays:
Assay in all cases: NCI-60 cell line screen, 48 h
ACHN renal = tested on: ACHN renal
HCT-15 colon = tested on: HCT-15 colon
IGROV1 ovarian = tested on: IGROV1 ovarian
MALME-3M melanoma = tested on: MALME-3M melanoma
OVCAR-4 ovarian = tested on: OVCAR-4 ovarian
PC-3 prostate = tested on: PC-3 prostate
SN12C renal = tested on: SN12C renal
UACC-257 melanoma = tested on: UACC-257 melanoma
UACC-62 melanoma = tested on: UACC-62 melanoma
HOP-92 NSCLC = tested on: HOP-92 NSCLC

SMILES	TGI (ACHN renal) [µM]	TGI (HCT-15 colon) [µM]	TGI (IGROV1 ovarian) [µM]	TGI (MALME-3M melanoma) [µM]	TGI (OVCAR-4 ovarian) [µM]	TGI (PC-3 prostate) [µM]	TGI (SN12C renal) [µM]	TGI (UACC-257 melanoma) [µM]	TGI (UACC-62 melanoma) [µM]	TGI (HOP-92 NSCLC) [µM]
CC(=O)NC(Cc1ccc(OP(=O)(OCc2ccc([N+](=O)[O-])o2)N(C)CCCCCl)cc1)C(=O)NC(C)c1ccc(OCC2CCCCC2)c(C(N)=O)c1 (stereo not drawn)	33.4	> 100	7.01	5.65	11.9	10.5	6.53	3.78	5.34	
C#CCn1c(=O)c(Cl)cn(/C(=C/C(=O)OCC)C(=O)OCC)c1=O	3.93	25.2	35.1	8.5	38.8	31.5	50.6	33.3	29.8	22
Clc1c(C(Cl)(Cl)Cl)nsc1N1CCCCC1	> 100	79.9	> 100	40.8	> 100	95.3	80.9	64.7	> 100	
Nn1c(Cc2ccccc2)n[nH]c1=O	> 100	> 100	> 100	> 100	> 100	> 100	> 100	> 100	> 100	
Cc1nc2ccccc2n1Cc1nnc(N)o1	> 100	> 100	> 100	> 100		> 100	> 100	> 100	> 100	> 100
O=C(OCc1ccccc1)N1CCN(C(=O)OCc2ccccc2)CCN(C(=O)OCc2ccccc2)CCN(C(=O)OCc2ccccc2)CCN(C(=O)OCc2ccccc2)CC1	> 100	> 100		61.2	> 100	> 100	> 100	73.1	> 100	> 100
CCOc1ccc2nc(NC(NC(=O)c3cccnc3)(C(F)(F)F)C(F)(F)F)sc2c1	> 100	> 100		> 100	> 100	78.6	> 100	69.4	91.6	80.6
CCOC(=O)C(C(=O)OCC)=C1NC2(c3ccccc3Nc3ccc(C)cc32)C(C(=O)OC)S1 (stereo not drawn)	> 100	> 100	> 100	63.5	> 100	> 100	18.2	> 100	> 100	44.4
O=C1ON=C2C3CC4CC12CC1(C3)C(=O)ON=C41	> 100		> 100	> 100	> 100	> 100	> 100	> 100	> 100	> 100
CSc1nc2c(=O)n(-c3ccccc3)c(=S)n(-c3ccccc3)c2s1	> 100	> 100	> 100	> 100	> 100	> 100	> 100	> 100		80.5
CCN(CC)CCCOc1cc2c(cc1OC)C(=O)N1CCC[C@H]1C=N2	> 100	> 100		> 100	> 100	> 100	> 100	> 100	54.3	70.9
CC(C)OC(=O)[C@@H](O)[C@H](CO)C1=CC([Si](C)(C)c2ccccc2)=CON1	> 100	> 100			> 100	> 100		> 100	> 100	
O=C1c2ccccc2-c2nc(/C=C/c3ccccc3)cc3c2c1nc1ccccc13	> 100	40.8	> 100		> 100	> 100	> 100	> 100	25.7	> 100
O=C1c2ccccc2C(=O)c2c(O)ccc(O)c21	> 100	> 100	> 100	> 100	> 100		> 100	> 100	> 100	> 100
c1ccc2c(c1)CC1COc3ccccc3C1O2 (stereo not drawn)	> 100	> 100	> 100	> 100		> 100	> 100	> 100	> 100	> 100
Cc1cc2nc(N3C(=O)/C(=C/c4ccc(Cl)cc4)N=C3c3ccccc3)sc2cc1C	> 100	> 100	> 100		91.8	98.9	87.6	> 100	> 100	56.5
COc1ccc(-c2cc(-c3cc(F)c(Cl)cc3Cl)on2)cc1OC	> 100	> 100	> 100	> 100	> 100	> 100	> 100	> 100		> 100
CC(Cc1ccccc1)NC1=NCCO1 (stereo not drawn)	> 100	> 100	> 100		> 100	> 100	53.3		> 100	69.1
CC(NC(C#N)CC12CC3CC(CC(C3)C1)C2)c1ccccc1 (stereo not drawn)	> 100	> 100	> 100	> 100		> 100		> 100	> 100	31.5
CC(=O)N1c2ccccc2C(C)C1c1[nH]c2ccccc2c1C (stereo not drawn)	> 100	> 100	> 100	> 100	> 100	> 100	33.9	49.3	48.9	
c1ccc(-c2cc(-c3cccs3)c(-c3cccs3)o2)cc1	> 100	> 100	> 100		> 100	> 100	> 100	> 100	> 100	> 100
Cc1nc(C(N)=S)sc1C(=O)C/C(=N/N)C(=O)Nc1ccc(Cl)cc1	> 100		> 100	> 100	> 100	> 100	> 100	> 100	> 100	
CCc1nc2ccc(C(F)(F)F)cc2[nH]c1=O	> 100	> 100		> 100	> 100	> 100	> 100	> 100	> 100	> 100
